# Measurements reported in patent US20260216294A1, “BETA 2-ADRENERGIC RECEPTOR AGONISTS FOR TREATMENT OR PREVENTION OF MUSCLE WASTING” (ATROGI AB, priority 2023, published 2026).
# What was measured:
# [1] = tested on: L6-myotubes; assay: Glucose uptake in differentiated L6-myotubes (Biological Example 2); format: cell-based; conditions: for Emax at 10 µM: read-out: Biological example 2 (GU)
# How it was run: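 Differentiated L6 myotubes were serum-starved overnight in 0.5% fatty-acid-free BSA and then stimulated with compound or isoprenaline at 1×10^−5 M final. After 1 h 40 min cells were washed and re-dosed in glucose-free medium. Twenty minutes later, uptake of 50 nM ^3H-2-deoxyglucose over 10 min was measured by scintillation counting of NaOH lysates.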
# [2] = tested on: L6-myotubes; assay: Measurement of intracellular cAMP levels in differentiated L6-myotubes (Biological Example 3); format: cell-based; conditions: for Emax at 10 µM: 0.25 h
# How it was run: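 Serum-starved differentiated L6 myotubes stimulated 15 min with test compound at 1×10^−5 M final (isoprenaline as reference) in HBSS with 1% BSA, 5 mM HEPES, 1 mM IBMX, pH 7.4. Cells EtOH-extracted, lysed, and intracellular cAMP measured by AlphaScreen.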
# [3] = glucose uptake in differentiated L6-myotubes, compound at 10 μM, activity relative to isoproterenol at 10 μM
# [4] = intracellular cAMP in differentiated L6-myotubes, compound at 10 μM, activity relative to isoproterenol at 10 μM
# [5] = glucose uptake, compound at 10 μM relative to isoproterenol at 10 μM
# [6] = intracellular cAMP, compound at 10 μM relative to isoproterenol at 10 μM
SMILES,"Emax at 10 µM [1, 3] [%]","Emax at 10 µM [2, 4] [%]",further results
"CO[C@H]1CCC[C@@H](C(C)(C)NC[C@H](O)c2cccc(F)c2)C1 [Compound 256, (R)-2-{1-[(1R,3S)-3-methoxycyclohexyl]-1-methylethylamino}-1-(m-fluorophenyl)-1-ethanol]",> 75,25 to 50,
CN(C)S(=O)(=O)[C@H]1CC[C@@H](CC(C)(C)NC[C@H](O)c2cncc(F)c2)CC1 [Compound 471],> 75,50 to 75,
"CO[C@H]1CCC[C@@H](C(C)(C)NC[C@H](O)c2cncc(F)c2)C1 [Compound 270, (R)-2-{1-[(1R,3S)-3-methoxycyclohexyl]-1-methylethylamino}-1-(5-fluoro-3-pyridyl)-1-ethanol]",> 75,50 to 75,
"CC1(C)CC[C@H]([C@H](O)c2cccc(N)c2F)N1 [Compound 227, (R)-[(R)-5,5-dimethyl-2-pyrrolidinyl](3-amino-2-fluorophenyl)methanol]",> 75,< 25,
"CC(C)(C[C@H]1CC[C@@H](S(N)(=O)=O)CC1)NC[C@H](O)c1cncc(F)c1 [Compound 519, (1S,4s)-4-{2-[(R)-2-(5-fluoro-3-pyridyl)-2-hydroxyethylamino]-2-methylpropyl} cyclohexanesulfonamide]",> 75,< 25,
"O[C@@H](CNC[C@H]1CC[C@H](O)CC1)c1cncc(F)c1 [Compound 274, (R)-1-(5-fluoro-3-pyridyl)-2-({[(1r,4R)-4-hydroxycyclohexyl]methyl}amino)-1-ethanol]",< 25,< 25,
"CCC[C@H]1CCC[C@H]([C@@H](O)c2ccccc2F)N1 [Compound 106, (S)-[(2R,6S)-6-propyl-2-piperidyl](o-fluorophenyl)methanol]",,,"Emax at 10 µM [1, 5]: 25 to 50%; Emax at 10 µM [2, 6]: < 25%"
"CC(C)(C)NC[C@H](O)c1cccc(F)c1 [Compound 54, (R)-2-(tert-butylamino)-1-(m-fluorophenyl)-1-ethanol]",,,"Emax at 10 µM [1, 5]: > 75%; Emax at 10 µM [2, 6]: < 25%"
CC1(C)C[C@@H]([C@@H](O)c2cccc(F)c2)N1 [Compound 199],25 to 50,< 25,
CCC[C@H]1CCC[C@@H]([C@H](O)c2cccc(F)c2)N1 [Compound 120],,,"Emax at 10 µM [1, 5]: 50 to 75%; Emax at 10 µM [2, 6]: < 25%"
"CO[C@H]1CC[C@H](C[C@@H]2CC[C@H]([C@H](O)c3cccc(F)c3)N2)CC1 [Compound 326, (R)-[(2R,5S)-5-{[(1r,4S)-4-methoxycyclohexyl]methyl}-2-pyrrolidinyl] (m-fluorophenyl)methanol]",> 75,< 25,
"CC(C)(C[C@H]1CC[C@@H](NS(C)(=O)=O)CC1)NC[C@H](O)c1cccc(C#N)n1 [Compound 422, 6-[(S)-2-{1,1-dimethyl-2-[(1s,4R)-4-(mesylamino)cyclohexyl]ethylamino}-1-hydroxyethyl]-2-pyridinecarbonitrile]",50 to 75,< 25,
"CC(C)(NC[C@H](O)c1cncc(F)c1)[C@H]1CC[C@H](OCc2ccccc2)CC1 [Compound 281, (R)-1-(5-fluoro-3-pyridyl)-2-{1-methyl-1-[(1r,4R)-4-(benzyloxy)cyclohexyl]ethylamino}-1-ethanol]",50 to 75,< 25,
"CCC[C@H]1CCC[C@H]([C@H](O)c2ccc(F)c(F)c2)N1 [Compound 67, (R)-[(2R,6S)-6-propyl-2-piperidyl](3,4-difluorophenyl)methanol]",,,"Emax at 10 µM [1, 5]: 25 to 50%; Emax at 10 µM [2, 6]: < 25%"
"CO[C@H]1CC[C@H](CCNC[C@H](O)c2cncc(F)c2)CC1 [Compound 225, (R)-1-(5-fluoro-3-pyridyl)-2-{2-[(1r,4R)-4-methoxycyclohexyl]ethylamino}-1-ethanol]",50 to 75,< 25,
"CCCC(C)NCC(O)c1cc(Cl)c(N)c(Cl)c1 (stereo not shown) [Compound 22, 1-(4-amino-3,5-dichlorophenyl)-2-(1-methylbutylamino)-1-ethanol]",,,"Emax at 10 µM [1, 5]: > 75%; Emax at 10 µM [2, 6]: 50 to 75%"
"CC(=O)N[C@H]1CC[C@H](C(C)(C)NC[C@H](O)c2cncc(F)c2)CC1 [Compound 346, N-[(1R,4r)-4-{1-[(R)-2-(5-fluoro-3-pyridyl)-2-hydroxyethylamino]-1-methylethyl}cyclohexyl] acetamide]",> 75,< 25,
"O[C@@H](c1cncc(F)c1)C12CCC(CCc3ccc(OC(F)(F)F)cc3)(CC1)N2 [Compound 543, (S)-(5-fluoro-3-pyridyl){4-[2-(p-trifluoromethoxyphenyl)ethyl]-7-azabicyclo[[2.2.1]]hept-1-yl}methanol]",< 25,< 25,

SMILES,"Emax at 10 µM [1, 3] [%]","Emax at 10 µM [2, 4] [%]",further results
"CS(=O)(=O)N(Cc1ccccc1)c1ccc(CC23CCC([C@@H](O)c4cccc(F)c4)(CC2)N3)cc1 [Compound 472, (S)-[4-({p-[(benzyl)-N-mesylamino]phenyl}methyl)-7-azabicyclo[[2.2.1]]hept-1-yl](m-fluorophenyl)methanol]",25 to 50,< 25,
"O[C@H](c1cncc(F)c1)C12CCC(C/C=C/c3ccccc3)(CC1)N2 [Compound 530, (R)-{4-[(E)-3-phenyl-2-propenyl]-7-azabicyclo[[2.2.1]]hept-1-yl}(5-fluoro-3-pyridyl)methanol]",> 75,25 to 50,
"CC(C)(C)NC[C@H](O)c1ccncc1F [Compound 108, (R)-2-(tert-butylamino)-1-(3-fluoro-4-pyridyl)-1-ethanol]",,,"Emax at 10 µM [1, 5]: 25 to 50%; Emax at 10 µM [2, 6]: < 25%"
"O[C@@H](CNC[C@H]1CC[C@@H](O)CC1)c1cncc(F)c1 [Compound 269, (R)-1-(5-fluoro-3-pyridyl)-2-({[(1s,4S)-4-hydroxycyclohexyl]methyl}amino)-1-ethanol]",25 to 50,< 25,
CC(C)(NC[C@H](O)c1cccc(F)c1)[C@H]1CC[C@@H](OCC(=O)O)CC1 [Compound 408],50 to 75,< 25,
CC(C)(C[C@H]1CC[C@@H](NC(=O)C2CC2)CC1)NC[C@H](O)c1cccc(F)c1 [Compound 447],> 75,< 25,
"CS(=O)(=O)N(Cc1ccccc1)[C@H]1CC[C@@H](C[C@@H]2CC[C@H]([C@H](O)c3cccc(F)c3)N2)CC1 [Compound 508, (R)-[(2R,5S)-5-({(1s,4R)-4-[(benzyl)-N-mesylamino]cyclohexyl}methyl)-2-pyrrolidinyl](m-fluorophenyl)methanol]",< 25,< 25,
"CC(C)(C)NC[C@H](O)c1cccc(O)c1F [Compound 86, (R)-2-(tert-butylamino)-1-(2-fluoro-3-hydroxyphenyl)-1-ethanol]",,,"Emax at 10 µM [1, 5]: 50 to 75%; Emax at 10 µM [2, 6]: 50 to 75%"
"CS(=O)(=O)N[C@H]1CC[C@@H](C[C@@H]2CC[C@H]([C@H](O)c3cccc(F)c3)N2)CC1 [Compound 510, (R)-[(2R,5S)-5-{[(1s,4R)-4-(mesylamino)cyclohexyl]methyl}-2-pyrrolidinyl](m-fluorophenyl)methanol]",> 75,< 25,
"CC(C)(C[C@H]1CC[C@@H](C(=O)O)CC1)NC[C@H](O)c1cccc(F)c1 [Compound 331, (1S,4s)-4-{2-[(R)-2-(m-fluorophenyl)-2-hydroxyethylamino]-2-methylpropyl} cyclohexanecarboxylic acid]",25 to 50,< 25,
"CC12CC(C1)[C@@H]([C@@H](O)c1cccc(N)c1F)N2 [Compound 242, (S)-{(S)-1-methyl-2-azabicyclo[[2.1.1]]hex-3-yl}(3-amino-2-fluorophenyl)methanol]",50 to 75,< 25,
CCC[C@@H]1CCC[C@@H]([C@H](O)c2cccc(Cl)c2)N1 [Compound 115],,,"Emax at 10 µM [1, 5]: > 75%; Emax at 10 µM [2, 6]: < 25%"
"CO[C@H]1CC[C@H](C[C@@H]2CC[C@H]([C@H](O)c3ccccc3F)N2)CC1 [Compound 337, (R)-[(2R,5S)-5-{[(1r,4S)-4-methoxycyclohexyl]methyl}-2-pyrrolidinyl] (o-fluorophenyl)methanol]",> 75,< 25,
"CO[C@H]1CC[C@@H](CCNC[C@H](O)c2cccc(F)c2)CC1 [Compound 237, (R)-1-(m-fluorophenyl)-2-{2-[(1s,4S)-4-methoxycyclohexyl]ethylamino}-1-ethanol]",50 to 75,< 25,
O[C@H](c1cncc(F)c1)C12CCC(COCc3ccc(OC(F)(F)F)cc3)(CC1)N2 [Compound 490],50 to 75,< 25,
"CS(=O)(=O)Nc1cccc(CC23CCC([C@@H](O)c4cccc(F)c4)(CC2)N3)c1 [Compound 515, (R)-(m-fluorophenyl)(4-{[m-(mesylamino)phenyl]methyl}-7-azabicyclo[[2.2.1]]hept-1-yl)methanol]",,,"Biological example 2 (GU) [1, 3]: ++ (if it is between 75 and 50% it is denoted with ++); Biological example 3 (CAMP) [2, 4]: + (if it is between 50 and 25% it is denoted with +)"
"CO[C@H]1CC[C@@H](CC(C)(C)NC[C@H](O)c2cccc(F)c2)CC1 [Compound 247, (R)-2-{1,1-dimethyl-2-[(1s,4S)-4-methoxycyclohexyl]ethylamino}-1-(m-fluorophenyl)-1-ethanol]",> 75,< 25,
